Series [1] deals with Huh7.5.1. Briefly: Cytotoxicity against human Huh-7.5.1 cells assessed as reduction in cell viability measured at 72 hrs by MTT assay. Type of series: functional.
Series [2] relates to SARS-CoV-2. The series can be described thus: Antiviral activity against SARS-CoV-2 WK-251 infected in African green monkey Vero E6 cells expressing TMPRSS2 assessed as reduction in viral RNA replication incubated for 24 hrs by qRT-PCR analysis. Type of series: functional, organism-based, Severe acute respiratory syndrome coronavirus 2. Conditions: for IC50: Severe acute respiratory syndrome coronavirus 2, WK-251, Vero C1008, 24 h. In general terms: Quantitative PCR measures a nucleic acid by following its amplification.

Series [3] concerns Huh-7.5.1. Briefly: Antagonist activity at LXR (unknown origin) expressed in human Huh-7.5.1 cells transfected with luciferase reporter plasmid containing of LXRE assessed as reduction in T0901317-induced reporter activity at 30 uM measured after 48 hrs by luciferase reporter assay. Type of series: cell-based. (A reporter such as luciferase makes a cellular process visible.)
Series [4] relates to Huh-7.5.1. Briefly: Antagonist activity at LXR (unknown origin) expressed in human Huh-7.5.1 cells transfected with luciferase reporter plasmid containing of LXRE assessed as reduction in T0901317-induced reporter activity at 10 uM measured after 48 hrs by luciferase reporter assay. Type of series: cell-based. The conditions noted are these: filed as antagonist.
Series [5] has as its system Huh-7.5.1. The series can be described thus: Antagonist activity at LXR (unknown origin) expressed in human Huh-7.5.1 cells transfected with luciferase reporter plasmid containing of LXRE assessed as reduction in T0901317-induced reporter activity at 5 uM measured after 48 hrs by luciferase reporter assay. Type of series: cell-based. Conditions: filed as antagonist.
In series [6] the test system is Hepatitis C virus. Briefly: Antiviral activity against HCV JFH-1 infected in human Huh-7.5.1 cells assessed as reduction in viral replication measured after 72 hrs by chemiluminescent enzyme immunoassay. Type of series: functional, organism-based, Hepacivirus hominis.
The nature of series [7]: Cytotoxicity against African green monkey Vero E6 cells expressing TMPRSS2 assessed as reduction in cell viability incubated for 24 hrs by DAPI staining based confocal microscopic analysis. The conditions noted are these: chlorocebus sabaeus. Type of series: toxicity, Vero C1008.

Active and inactive are the calls of the source. No cut-off for these calls is given here.

One may read the CC50 as the concentration giving 50% cytotoxicity. Usually IC50 stands for the concentration that inhibits the measured activity by half. As for `C=c1[nH]c(=O)/c(=C/c2ccc(C(F)(F)F)cc2)[nH]c1=O`, the CC50 in series [1] was above 20 µM. For the same compound, the IC50 in series [2] was 9.1 µM.

On to `C=CC(C)(C)c1[nH]c2ccccc2c1/C=C1\NC(=O)C(C)(OC)NC1=O` (stereo not drawn) [VARIECOLORIN H], for which the CC50 in series [1] was above 20 µM.

`C=c1[nH]c(=O)/c(=C/c2ccc(OC)cc2)[nH]c1=O`: the cytotoxic concentration (CC50) in series [1] is above 20 µM.

For the compound `C=c1[nH]c(=O)/c(=C/c2ccc(C)cc2)[nH]c1=O`, the CC50 in series [1] is above 20 µM.

Take `C=c1[nH]c(=O)/c(=C/c2ccc(N(C)C)cc2)[nH]c1=O`: the CC50 in series [1] was above 20 µM.

Turning to `C=c1[nH]c(=O)/c(=C/c2cc(OC)c(OC)c(OC)c2)[nH]c1=O`, the CC50 in series [1] was above 20 µM.

Turning to `C=c1[nH]c(=O)/c(=C/c2c[nH]c3ccccc23)[nH]c1=O`, the 50% cytotoxic concentration (CC50) in series [1] was above 20 µM.

Take `C=c1[nH]c(=O)/c(=C/c2ccc(OC)c(OC)c2)[nH]c1=O`: the half-maximal cytotoxic concentration (CC50) in series [1] is above 20 µM.

Take `C=c1[nH]c(=O)/c(=C/c2ccc3ccccc3c2)[nH]c1=O`: the cytotoxic concentration (CC50) in series [1] is above 20 µM.

Regarding `C=c1[nH]c(=O)/c(=C/c2ccc(-c3ccccc3)cc2)[nH]c1=O`, the half-maximal cytotoxic concentration (CC50) in series [1] is above 20 µM.

Turning to `C=c1[nH]c(=O)/c(=C/c2ccc(C(=O)OC)cc2)[nH]c1=O`, in series [1], the CC50 is above 20 µM.

With `C=c1[nH]c(=O)/c(=C/c2ccoc2)[nH]c1=O`, the CC50 in series [1] was above 20 µM.

As for `C=c1[nH]c(=O)/c(=C/c2ccsc2)[nH]c1=O`, the 50% cytotoxic concentration (CC50) in series [1] is above 20 µM.

Consider `C=c1[nH]c(=O)/c(=C/c2ccccc2)[nH]c1=O`, for which the CC50 in series [1] is above 20 µM. Also, the result in series [3] was inactive.

On to `C=CC(C)(C)c1[nH]c2ccccc2c1C[C@@H]1NC(=O)[C@H](C)NC1=O` [PREECHINULIN], for which the 50% cytotoxic concentration (CC50) in series [1] is above 20 µM.

For `C=CC(C)(C)c1[nH]c2ccccc2c1/C=c1\[nH]c(=O)c(=C)[nH]c1=O` [NEOECHINULIN B], the CC50 in series [1] is above 20 µM. Also, the outcome in series [4] was Active.

For `C=c1[nH]c(=O)/c(=C/c2ccc(C(C)(C)C)cc2)[nH]c1=O`, in series [1], the CC50 was above 20 µM. In addition, the outcome in series [5] was Active.

As usually defined, the IC90 is the point of the concentration-response curve where the effect stands at 90%. For `C=c1[nH]c(=O)/c(=C/c2ccc3ccc4cccc5ccc2c3c45)[nH]c1=O`, the 50% inhibitory concentration (IC50) is 3.9 µM in series [6] (JFH-1, Huh-7.5.1, 72 h) and above 40 µM in series [2]. In addition, the IC90 in series [6] (JFH-1, Huh-7.5.1, time 72 hrs) is above 20 µM; in series [2] (Severe acute respiratory syndrome coronavirus 2, WK-251, Vero C1008, time 24 hrs), above 40 µM. Also, the CC50 in series [1] is above 20 µM. Moreover, in series [7], the CC50 at 24 h is above 100 µM.

With `C=c1[nH]c(=O)/c(=C/c2cc(C(C)(C)C)cc(C(C)(C)C)c2)[nH]c1=O`, the CC50 in series [1] is above 20 µM.

(Values after ChEMBL document CHEMBL5038642, “Synthesis and Antiviral Activities of Neoechinulin B and Its Derivatives” (J Nat Prod, 2022).)
